Experimental findings from PubChem BioAssay (NCI) are described below.

Holding throughout (test): NCI anticancer screen, dose series, 48 h
The test system of test [1] is M14 melanoma.
The test system of test [2] is SF-295 CNS.
In test [3] the test system is NCI-H226 lung.
Test [4] has as its system NCI-H23 lung.
Test [5] relates to 786-0 renal.
In test [6] the test system is SK-OV-3 ovarian.
In test [7] the test system is SF-539 CNS.
Test [8] concerns RPMI-8226 leukemia.
Test [9] deals with PC-3 prostate.
The test system of test [10] is UO-31 renal.

The structures appear in SMILES notation. Values joined by “and” are separate entries in the source; they are usually repeats but may differ in a detail not shown here. Identical values can stand only once.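 Cultured in 96-well plates, cells were exposed to test compound for 48 hours across five concentrations. Abbreviation: GI50, concentration required for 50% inhibition of growth. TGI: total growth inhibition.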 Some results are limits rather than exact numbers.

Turning to `C=CCCCOC1[C@H](OCc2ccccc2)C(OCc2ccccc2)C(OC)O[C@@H]1CNC(=O)c1cccc(I)c1` (stereo partly specified), the GI50 in [1] was 60.2 µM; in test [2], 4140 nM; in [3], 21.9 µM; in test [4], 33600 nM; in [5] it was 3780 nM; in [6], 5.45 µM. Moreover, the GI50 is 4380 nM in [7], 2570 nM in test [8], 2190 nM in test [9] and 9510 nM in [10]. Further, the TGI in [1], in [2], in test [3], in test [4], in test [5] and in [6] was more than 100 µM each time. For the same compound, the TGI in [7] was 76.4 µM; in test [8] it was 9.19 µM; in test [9], more than 100 µM; in test [10], more than 100 µM.
For the compound `C[C@@H]1COCCN1c1cc(-c2ccnn2C)c2ccnc(-c3ccn[nH]3)c2n1`, the GI50 was 0.0291 µM and 0.0471 µM in test [1]; 57 nM and 110 nM in test [2]; 0.241 µM and 0.474 µM in test [3]; 30.3 nM and 75 nM in test [4]; 40.6 nM and 79 nM in [5]; 0.0928 µM and 0.215 µM in [6]. In addition, the GI50 in test [7] was 70.4 nM and 142 nM; in test [8] it was 177 nM and 202 nM; in test [9], 275 nM and 454 nM; in test [10] it was 74.1 nM and 152 nM. Also, the TGI in test [2] was 0.648 µM and 1.15 µM; in [5], 0.483 µM; in test [6] it was 0.732 µM and 2.06 µM; in test [7], 0.547 µM and 1.23 µM; in test [8], 3.01 µM and 5.4 µM; in test [9] it was more than 100 µM. Besides, the TGI in test [10] was 0.792 µM and 1.92 µM.
Turning to `Brc1cccc(-c2cc(-c3ccc4nccnc4c3)[nH]n2)c1`, the GI50 in [1] was 0.43 µM; in [2], 1110 nM; in test [4], 1330 nM; in test [5], 1660 nM; in [6], 0.845 µM; in test [7] it was 764 nM. Moreover, the GI50 in test [8] was 865 nM; in [9], 680 nM; in test [10] it was 1900 nM. For the same compound, the TGI in test [1], in [2], in [3], in test [4], in test [5] and in test [6] was more than 250 µM each time. Further, the TGI is 3.28 µM in test [7], 76.4 µM in test [8], more than 250 µM in test [9] and more than 250 µM in test [10].
`O=c1c(-c2ccccc2)coc2cc(OC/C(=N/O)c3ccc(F)cc3)ccc12`: the GI50 in [1] was 17.5 µM; in test [2], 25500 nM; in [3] it was 25.1 µM; in test [4] it was 19300 nM; in test [5] it was 19300 nM; in test [6], 15.4 µM. Also, the GI50 in [7] was 15200 nM; in [8] it was 18800 nM; in test [9], 19000 nM; in test [10], 17400 nM. The TGI in test [1] turned out to be 41.3 µM; in [2] it was 82.4 µM; in test [3], 77.7 µM; in test [4], 42.1 µM; in [5], 41.8 µM; in test [6] it was 35.8 µM. Besides, the TGI in [7] stood at 29.6 µM; in [8], 59.7 µM; in test [9] it was 45.9 µM; in [10] it was 50.2 µM.
`NS(=O)(=O)c1cccc(-c2ccc3c(NC(=O)C4CC4)n[nH]c3c2)c1`: the GI50 is 12.3 µM in test [1]; more than 25000 nM in test [2]; more than 15.1 µM in test [3]; more than 25000 nM in test [4]; 24300 nM in test [5]; 9.16 µM in test [6]. In addition, the GI50 is 14300 nM in test [7], more than 25000 nM in test [8], 15600 nM in test [9] and more than 25000 nM in test [10]. The TGI was more than 25 µM in test [1]; more than 25 µM in test [2]; more than 25 µM in test [3]; more than 25 µM in test [4]; more than 25 µM in test [5]; 23.6 µM in test [6]. The TGI in test [7], in test [8], in test [9] and in [10] was more than 25 µM each time.
As to `COc1cccc(CC(C)=C(c2ccc(OCCCN(C)C)cc2)c2ccc(OCCCN(C)C)cc2)c1`, the GI50 was 0.461 µM in test [1]; 658 nM in test [2]; 2.84 µM in [3]; 2870 nM in test [4]; 416 nM in test [5]; 4.04 µM in [6]. For the same compound, the GI50 in [7] is 437 nM; in test [8], 550 nM; in [9], 693 nM; in [10], 424 nM. Moreover, the TGI came to 0.864 µM in [1]; 1.87 µM in test [2]; 6.95 µM in test [3]; 6.31 µM in test [4]; 0.771 µM in test [5]; 7.57 µM in test [6]. Moreover, the TGI in [7] is 0.801 µM; in [8], 1.29 µM; in test [9], 2.46 µM; in test [10] it was 0.795 µM.
Consider `CC(=O)OC(C)C(OC(C)=O)C(OC(C)=O)C(/C=C/C1CC=CC(=O)O1)OC(C)=O` (stereo unspecified), for which the GI50 was 29.5 µM in test [1]; 51000 nM in [2]; 42.6 µM in [3]; 31300 nM in test [4]; 37800 nM in test [5]; 78 µM in test [6]. For the same compound, the GI50 is 21500 nM in test [7], 26700 nM in test [8], 73200 nM in test [9] and 42800 nM in test [10]. In addition, the TGI was more than 100 µM in test [1]; more than 100 µM in test [2]; more than 100 µM in test [3]; 98 µM in [4]; more than 100 µM in [5]; more than 100 µM in test [6]. Further, the TGI in test [7] is 43.5 µM; in test [8], 83.5 µM; in test [9], more than 100 µM; in test [10], more than 100 µM.
